In patent publication US9012159B2, “Cell based screening assays for the triglyceride synthesis pathway” (Janssen Research & Development, LLC, priority 2009, dated 2015):

Tests used:
MCF7 cells = test: Stable isotope (13C18-oleic acid) labeling of triglyceride synthesis with LC-MS detection in MCF7 cells; type: cell-based, human; settings: compound 0.1-10 μM (concentration of the result not stated), about 3 hours with 13C18-oleic acid, % of control (FIG. 6)
Experimental: (§1) The 3T3-L1 mouse preadipocyte cells were maintained in Dulbecco's Modified Eagles Medium (DMEM) with 10% fetal bovine serum (FBS). Cells were seeded in 96-well plates. Two days post confluency, the medium was changed to induction medium with IBMX, insulin, and dexamethasone (Adipolysis kit, Cayman Chemical Company). Three days after induction, the medium was changed to insulin medium (Adipolysis kit, Cayman Chemical Company). Five days after induction, the medium was replaced with fresh insulin medium for 2 days. Human hepatoma cell line HUH7 was maintained in DMEM with 10% FBS, 4.5 g/L D-glucose. Rat hepatoma cell line FU5AH was maintained in Minimum Essential Medium Eagle (MEM) with 5% FBS. The hepatoma cells were plated in 96 well plates and used at 80% confluence. Human breast cancer cell line MCF7 cells were maintained in DMEM with 10% FBS, 4.5 g/L D-glucose. Human monocytic leukemia cell line THP-1 was maintained in RPMI medium with 10% FBS and used at 5×10^5 cells/ml.
The LC-MS detection was conducted with Agilent 1100 Liquid Chromatographic system (Agilent Technologies, Palo Alto, Calif.) interfaced with a Micromass triple-quadrupole Quattro Micro mass spectrophotometer (Waters, Milford, Mass.) through a Z-spray electrospray ion source (ESI). […]
Next, the effects of Compound 2 in MCF7 cells were evaluated. […]

HUH7 cells = test: Stable isotope (13C18-oleic acid) labeling of triglyceride synthesis with LC-MS detection in HUH7 cells; type: cell-based, human; settings: for levels of 13C18-triolein relative to those of the control: 10 μM compound, about 90 minutes with 13C18-oleic acid, % of control (FIG. 3)
Experimental: as §1
The HUH7 cells or the differentiated 3T3-L1 cells were incubated with DMEM with 10% charcoal-stripped FBS (Gibco) in 5% CO2 at 37° C. for overnight. The FU5AH cells were incubated with MEM with 5% charcoal-stripped FBS in 5% CO2 at 37° C. for overnight. About 100 μl of 300 μM ^13C18-oleic acid (SIGMA) precomplexed with 0.5% fatty acid free BSA (SIGMA) were added to the cell suspension in 5% CO2 at 37° C. for 0, 30, 60, 120 and 180 minutes. Then the cells were washed once with phosphate buffered saline and extracted with 100 μl of isopropyl alcohol. After incubating at room temperature for 10 minutes, the extraction was transferred to a glass vial and detected for labeled lipid molecules using the LC-MS system.
The LC-MS detection was conducted with Agilent 1100 Liquid Chromatographic system (Agilent Technologies, Palo Alto, Calif.) interfaced with a Micromass triple-quadrupole Quattro Micro mass spectrophotometer (Waters, Milford, Mass.) through a Z-spray electrospray ion source (ESI). Separation of the metabolites was performed on an Eclipse XDB-C8 column (2.1×50 mm, particle size=3.5 μm). Mobile Phase A, 50 mM ammonium formate in isopropanol-water (3:7), and mobile phase B, 10 mM ammonium formate in isopropanol-water (9:1) were used for a gradient elution as following: 20-100% Mobile Phase B for 1 min, hold 100% Mobile Phase B for 4 min, return to 20% Mobile Phase B for 0.1 min, then post run time of 4.5 min. The flow rate was 0.5 ml/min. […]
(§2) For evaluating compounds which modulate activity of DGAT1 or DGAT2, HUH7 or 3T3-L1 cells were preincubated with about 0, 0.03, 0.1, 0.3, 1, 3, or 10 μM Compounds 1 or 2 for about 10 minutes at 37° C. in 100 μl serum free medium with 0.05% DMSO. […] After incubation at 37° C. for about 90 minutes, cells were extracted and detected as described in Example 2.

[1] = test system: differentiated 3T3-L1 cells; test: Stable isotope (13C18-oleic acid) labeling of triglyceride synthesis with LC-MS detection in differentiated 3T3-L1 cells; type: cell-based, mouse; settings: differentiated 3T3-L1 cell line
Experimental: as §1, with “The hepatoma cells were plated in 96 well plates and used at 80% confluence. Human breast cancer cell line MCF7 cells were maintained in DMEM with 10% FBS, 4.5 g/L D-glucose. Human monocytic leukemia cell line THP-1 was maintained in RPMI medium with 10% FBS and used at 5×10^5 cells/ml.” left out
The HUH7 cells or the differentiated 3T3-L1 cells were incubated with DMEM with 10% charcoal-stripped FBS (Gibco) in 5% CO2 at 37° C. for overnight. […] After incubating at room temperature for 10 minutes, the extraction was transferred to a glass vial and detected for labeled lipid molecules using the LC-MS system. […]
as §2

| Compound | levels of 13C18-triolein relative to those of the control (MCF7 cells) | levels of 13C18-triolein relative to those of the control (HUH7 cells; HUH7 cell line) | levels of 13C18-triolein relative to those of the control ([1]; about 10 μM compound, about 90 minutes with 13C18-oleic acid, % of control (FIG. 4)) | levels of the newly synthesized 13C18-triolein in the presence of compound ([1]; result in words) | levels of the newly synthesized 13C18-triolein in the presence of compound (HUH7 cells; HUH7 cell line, result in words) | 13C18-oleoyl-diglyceride level (HUH7 cells; HUH7 cells incubated with compound (FIG. 5), result in words) |
| --- | --- | --- | --- | --- | --- | --- |
| COC(=O)c1[nH]c(=S)n(C(c2ccc(Cl)c(Cl)c2)C2CCCCC2)c1C(=O)OC (stereo not shown) [Compound 2, dimethyl 1-[cyclohexyl(3,4-dichlorophenyl)methyl]-2-thioxo-2,3-dihydro-1H-imidazole-4,5-dicarboxylate] | about 80% | about 75% |  |  |  |  |
| COc1ccc(CC(=O)Nc2ccc(N3CCN(C(=O)Nc4c(Cl)cc(CN5CCCC5)cc4Cl)CC3)cc2)cc1 [Compound 1, N-[2,6-Dichloro-4-(pyrrolidin-1-ylmethyl)phenyl]-4-(4-{[(4-methoxyphenyl)acetyl]amino}phenyl)piperazine-1-carboxamide] |  | about 30% | about 33% | reduced levels | reduced levels | transient increase |
